Data from patent publication US8450357B2, “Compositions comprising an aryl pyrazole and/or a formamidine, methods and uses thereof” (Merial Limited, priority 2008, dated 2013).

Legend:
[1] = Stability of formulations comprising Compound 1, accelerated @ 50° C., HPLC; format: physicochemical; settings: solvents or combinations of solvents in Table 1
Experimental: Compound 1 (3-cyano-1-(2-chloro-6-fluoro-4-trifluoromethylphenyl)-4-dichlorofluoromethylsulfinyl-5-methyl-1H-pyrazole) was dissolved in a solvent or a combination of two or more solvents at 10% w/w. The formulations thus prepared were analyzed, using HPLC, for the content of compound 1 as the initial timepoint reading. Then all formulations were placed at 50° C., and the content of compound 1 in each of them was analyzed at the timepoints of two, four, six and, in some cases, 10 weeks. […] Thus formulations of Compound 1 in the solvents/carriers identified below are shown to be sufficiently stable.

[2] = test system: fleas (Ctenocephalides felis); experiment: Study B: flea efficacy of Compound 1 spot-on formulations in dogs; format: in vivo
Excerpt: A separate clinical efficacy study in dogs was designed with an untreated control group and 5 test groups treated with compound 1. Each group had six dogs. Test articles were formulated as topical spot-on solutions containing compound 1, 10-20% w/v in a solvent or a combination of solvents as described above. Dogs were infested with approximately 50 ticks (Rhipicephalus sanguineus) on days −1, 7, 14, 21, 28, 35 and 42. Dogs were also infested with approximately 100 fleas (Ctenocephalides felis) on days −1, 8, 15, 22, 29, 36, and 43. Treatment was applied by parting the hair and applying the formulation directly onto the skin on one spot at the midline of the neck, between the base of the skull and the shoulder blades. […] […] It should be noted that Study A and Study B were conducted at different times and locations, and the results of each clinical study may differ from the other based on various environmental factors. Thus, the results of one clinical study should not be compared with those of another due to these factors.

Cc1c([S+]([O-])C(F)(Cl)Cl)c(C#N)nn1-c1c(F)cc(C(F)(F)F)cc1Cl (stereo not shown) [Compound 1, 3-cyano-1-(2-chloro-6-fluoro-4-trifluoromethylphenyl)-4-dichlorofluoromethylsulfinyl-5-methyl-1H-pyrazole]
stability of Compound 1 [1]: good stability | % Efficacy against fleas ([2]; Day 2, Trt. Group 2: 0.1 ml/kg (10 mg/kg) in Triacetin): 100% | % Efficacy against fleas ([2]; Day 2, Trt. Group 3: 0.2 ml/kg (20 mg/kg) in Triacetin): 100% | % Efficacy against fleas ([2]; Day 2, Trt. Group 4: 10 mg/kg in Diisopropyl adipate): 100% | % Efficacy against fleas ([2]; Day 2, Trt. Group 5: 10 mg/kg in Diethylene glycol monoethyl ether (transcutol)): 100% | % Efficacy against fleas ([2]; Day 2, Trt. Group 6: 10 mg/kg in Triacetin/diisopropyl adipate): 100% | % Efficacy against fleas ([2]; Day 9, Trt. Group 2: 0.1 ml/kg (10 mg/kg) in Triacetin): 100% | % Efficacy against fleas ([2]; Day 9, Trt. Group 3: 0.2 ml/kg (20 mg/kg) in Triacetin): 100% | % Efficacy against fleas ([2]; Day 9, Trt. Group 4: 10 mg/kg in Diisopropyl adipate): 100% | % Efficacy against fleas ([2]; Day 9, Trt. Group 5: 10 mg/kg in Diethylene glycol monoethyl ether (transcutol)): 100% | % Efficacy against fleas ([2]; Day 9, Trt. Group 6: 10 mg/kg in Triacetin/diisopropyl adipate): 100% | % Efficacy against fleas ([2]; Day 16, Trt. Group 2: 0.1 ml/kg (10 mg/kg) in Triacetin): 100% | % Efficacy against fleas ([2]; Day 16, Trt. Group 3: 0.2 ml/kg (20 mg/kg) in Triacetin): 100% | % Efficacy against fleas ([2]; Day 16, Trt. Group 4: 10 mg/kg in Diisopropyl adipate): 100% | % Efficacy against fleas ([2]; Day 16, Trt. Group 5: 10 mg/kg in Diethylene glycol monoethyl ether (transcutol)): 100% | % Efficacy against fleas ([2]; Day 16, Trt. Group 6: 10 mg/kg in Triacetin/diisopropyl adipate): 100% | % Efficacy against fleas ([2]; Day 23, Trt. Group 2: 0.1 ml/kg (10 mg/kg) in Triacetin): 99.8% | % Efficacy against fleas ([2]; Day 23, Trt. Group 3: 0.2 ml/kg (20 mg/kg) in Triacetin): 99.8% | % Efficacy against fleas ([2]; Day 23, Trt. Group 4: 10 mg/kg in Diisopropyl adipate): 100% | % Efficacy against fleas ([2]; Day 23, Trt. Group 5: 10 mg/kg in Diethylene glycol monoethyl ether (transcutol)): 99.8% | % Efficacy against fleas ([2]; Day 23, Trt. Group 6: 10 mg/kg in Triacetin/diisopropyl adipate): 99.8% | % Efficacy against fleas ([2]; Day 30, Trt. Group 2: 0.1 ml/kg (10 mg/kg) in Triacetin): 99.7% | % Efficacy against fleas ([2]; Day 30, Trt. Group 3: 0.2 ml/kg (20 mg/kg) in Triacetin): 100% | % Efficacy against fleas ([2]; Day 30, Trt. Group 4: 10 mg/kg in Diisopropyl adipate): 100% | % Efficacy against fleas ([2]; Day 30, Trt. Group 5: 10 mg/kg in Diethylene glycol monoethyl ether (transcutol)): 100% | % Efficacy against fleas ([2]; Day 30, Trt. Group 6: 10 mg/kg in Triacetin/diisopropyl adipate): 100% | % Efficacy against fleas ([2]; Day 37, Trt. Group 2: 0.1 ml/kg (10 mg/kg) in Triacetin): 99.8% | % Efficacy against fleas ([2]; Day 37, Trt. Group 3: 0.2 ml/kg (20 mg/kg) in Triacetin): 100% | % Efficacy against fleas ([2]; Day 37, Trt. Group 4: 10 mg/kg in Diisopropyl adipate): 98.9% | % Efficacy against fleas ([2]; Day 37, Trt. Group 5: 10 mg/kg in Diethylene glycol monoethyl ether (transcutol)): 100% | % Efficacy against fleas ([2]; Day 37, Trt. Group 6: 10 mg/kg in Triacetin/diisopropyl adipate): 100% | % Efficacy against fleas ([2]; Day 44, Trt. Group 2: 0.1 ml/kg (10 mg/kg) in Triacetin): 100% | % Efficacy against fleas ([2]; Day 44, Trt. Group 3: 0.2 ml/kg (20 mg/kg) in Triacetin): 100% | % Efficacy against fleas ([2]; Day 44, Trt. Group 4: 10 mg/kg in Diisopropyl adipate): 99.6% | % Efficacy against fleas ([2]; Day 44, Trt. Group 5: 10 mg/kg in Diethylene glycol monoethyl ether (transcutol)): 100% | % Efficacy against fleas ([2]; Day 44, Trt. Group 6: 10 mg/kg in Triacetin/diisopropyl adipate): 100% | % Efficacy against fleas ([2]; Day 51, Trt. Group 2: 0.1 ml/kg (10 mg/kg) in Triacetin): 99.8% | % Efficacy against fleas ([2]; Day 51, Trt. Group 3: 0.2 ml/kg (20 mg/kg) in Triacetin): 99.7% | % Efficacy against fleas ([2]; Day 51, Trt. Group 4: 10 mg/kg in Diisopropyl adipate): 98.5% | % Efficacy against fleas ([2]; Day 51, Trt. Group 5: 10 mg/kg in Diethylene glycol monoethyl ether (transcutol)): 100% | % Efficacy against fleas ([2]; Day 51, Trt. Group 6: 10 mg/kg in Triacetin/diisopropyl adipate): 100% | % Efficacy against fleas ([2]; Day 58, Trt. Group 2: 0.1 ml/kg (10 mg/kg) in Triacetin): 99.6% | % Efficacy against fleas ([2]; Day 58, Trt. Group 3: 0.2 ml/kg (20 mg/kg) in Triacetin): 99.0% | % Efficacy against fleas ([2]; Day 58, Trt. Group 4: 10 mg/kg in Diisopropyl adipate): 96.7% | % Efficacy against fleas ([2]; Day 58, Trt. Group 5: 10 mg/kg in Diethylene glycol monoethyl ether (transcutol)): 100% | % Efficacy against fleas ([2]; Day 58, Trt. Group 6: 10 mg/kg in Triacetin/diisopropyl adipate): 98.8%
